In brackets after ≈: the same amount, converted by molar mass.
Tests used:
Type in all cases: functional
Staphylococcus aureus [1] = assay: Minimum inhibitory concentration (MIC) against methicillin-resistant Staphylococcus aureus (MRSA) OC2878
Enterococcus faecalis = assay: Minimum inhibitory concentration (MIC) against Enterococcus faecalis ATCC 29212
Staphylococcus aureus [2] = assay: Minimum inhibitory concentration (MIC) against Staphylococcus aureus OC 4172 in the presence of 50% mouse serum
Mus musculus = assay: Tested for the dose to protect the mice from infection with Staphylococcus aureus OC 4172, by oral administration
Escherichia coli [3] = assay: Minimum inhibitory concentration (MIC) against Escherichia coli OC 2605
Staphylococcus aureus [4] = assay: Minimum inhibitory concentration (MIC) against Staphylococcus aureus OC 4172 in the absence of mouse serum
Escherichia coli [5] = assay: Minimum inhibitory concentration (MIC) against Escherichia coli OC 2530 (HS)
Enterococcus faecium = assay: Minimum inhibitory concentration (MIC) against Enterococcus faecium OC 3312 (VRE)
Staphylococcus aureus [6] = assay: Tested for the dose to protect the mice from infection with Staphylococcus aureus OC 4172, by subcutaneous administration; settings: sc

SMILES | MIC (Staphylococcus aureus [1]) [µg/mL] | MIC (Enterococcus faecalis) [µg/mL] | MIC (Staphylococcus aureus [2]) [µg/mL] | ED50 (Mus musculus) [mg/kg/day] | MIC (Escherichia coli [3]) [µg/mL] | MIC (Staphylococcus aureus [4]) [µg/mL] | MIC (Escherichia coli [5]) [µg/mL] | MIC (Enterococcus faecium) [µg/mL] | ED50 (Staphylococcus aureus [6]) [mg/kg/day]
CC(=O)NC[C@H]1CN(c2ccc(C3=NOC(C(N)=O)C3)c(F)c2)C(=O)O1 (stereo partly specified) | 2 (≈ 5.49 µM) | 4 (≈ 11 µM) | 1 | 40 | > 64 | 2 (≈ 5.49 µM) | 32 (≈ 87.8 µM) | 4 (≈ 11 µM) | 11.8
COC(=O)c1cc(-c2ccc(N3C[C@H](CNC(C)=O)OC3=O)cc2F)no1 | 4 (≈ 10.6 µM) | 16 (≈ 42.4 µM) | > 128 |  | > 128 | 8 (≈ 21.2 µM) | 64 (≈ 170 µM) | 8 (≈ 21.2 µM) | 
CC(=O)NC[C@H]1CN(c2ccc(C3=NOC(CN(C)C)C3)c(F)c2)C(=O)O1 (stereo partly specified) | 8 (≈ 21.1 µM) | 8 (≈ 21.1 µM) | 2 |  | 128 (≈ 338 µM) | 8 (≈ 21.1 µM) | 64 (≈ 169 µM) | 8 (≈ 21.1 µM) | 
COCCNC(=O)C1CC(c2ccc(N3C[C@H](CNC(C)=O)OC3=O)cc2F)=NO1 (stereo partly specified) | 16 (≈ 37.9 µM) | 16 (≈ 37.9 µM) | 8 |  | > 64 | 8 (≈ 18.9 µM) | 64 (≈ 152 µM) | 16 (≈ 37.9 µM) | 
CC(=O)NC[C@H]1CN(c2ccc(C3=NOC(c4ccncc4)C3)c(F)c2)C(=O)O1 (stereo partly specified) | 1 (≈ 2.51 µM) | 4 (≈ 10 µM) | 4 |  | > 64 | 4 (≈ 10 µM) | 32 (≈ 80.3 µM) | 4 (≈ 10 µM) | 
CC(=O)NC[C@H]1CN(c2ccc(C3=NOC(C(=O)N4CCOCC4)C3)c(F)c2)C(=O)O1 (stereo partly specified) | 8 (≈ 18.4 µM) | 8 (≈ 18.4 µM) | 8 |  | > 128 | 8 (≈ 18.4 µM) | 32 (≈ 73.7 µM) | 8 (≈ 18.4 µM) | 
CC(=O)NC[C@H]1CN(c2ccc(C3=NOC(C#N)C3)c(F)c2)C(=O)O1 (stereo partly specified) | 1 (≈ 2.89 µM) | 2 (≈ 5.78 µM) | 1 | 22.1 | 128 (≈ 370 µM) | 2 (≈ 5.78 µM) | 16 (≈ 46.2 µM) | 2 (≈ 5.78 µM) | 22.4
CC(=O)NC[C@H]1CN(c2ccc(C3=NOC(c4ccccn4)C3)c(F)c2)C(=O)O1 (stereo partly specified) | 2 (≈ 5.02 µM) | 2 (≈ 5.02 µM) | 4 | 31.6 | > 64 | 2 (≈ 5.02 µM) | 8 (≈ 20.1 µM) | 2 (≈ 5.02 µM) | 22.8
CC(=O)NC[C@H]1CN(c2ccc(C3=NOC(CN4CCN(C(C)=O)CC4)C3)c(F)c2)C(=O)O1 (stereo partly specified) | 8 (≈ 17.3 µM) | 8 (≈ 17.3 µM) | 8 |  | > 32 | 8 (≈ 17.3 µM) | 16 (≈ 34.7 µM) | 16 (≈ 34.7 µM) | 
CNC(=O)C1CC(c2ccc(N3C[C@H](CNC(C)=O)OC3=O)cc2F)=NO1 (stereo partly specified) | 4 (≈ 10.6 µM) | 4 (≈ 10.6 µM) | 4 |  | > 128 | 4 (≈ 10.6 µM) | 32 (≈ 84.6 µM) | 4 (≈ 10.6 µM) | 
CC(=O)NC[C@H]1CN(c2ccc(-c3cc(-c4ccccn4)on3)c(F)c2)C(=O)O1 | 2 (≈ 5.05 µM) | 4 (≈ 10.1 µM) | 8 |  | > 128 | 4 (≈ 10.1 µM) | 64 (≈ 161 µM) | 4 (≈ 10.1 µM) | > 40
CC(=O)NCC1CC(c2ccc(N3C[C@H](CNC(C)=O)OC3=O)cc2F)=NO1 (stereo partly specified) | 16 (≈ 40.8 µM) | 16 (≈ 40.8 µM) | 8 |  | > 64 | 8 (≈ 20.4 µM) | 64 (≈ 163 µM) | 16 (≈ 40.8 µM) | 
CCOC(=O)C1CC(c2ccc(N3C[C@H](CNC(C)=O)OC3=O)cc2F)=NO1 (stereo partly specified) | 4 (≈ 10.2 µM) | 16 (≈ 40.7 µM) | > 128 |  | > 128 | 8 (≈ 20.3 µM) | 128 (≈ 325 µM) | 8 (≈ 20.3 µM) | 
CC(=O)NC[C@H]1CN(c2ccc(C3=NOC(Cn4ccnc4)C3)c(F)c2)C(=O)O1 (stereo partly specified) |  | > 32 | > 32 |  | > 32 | > 32 | > 32 | > 32 | 
CC(=O)NC[C@H]1CN(c2ccc(C3=NOC(CN4CCOCC4)C3)c(F)c2)C(=O)O1 (stereo partly specified) | 8 (≈ 19 µM) | 16 (≈ 38.1 µM) | 16 |  | 64 (≈ 152 µM) | 16 (≈ 38.1 µM) | 32 (≈ 76.1 µM) | 32 (≈ 76.1 µM) | 
CC(=O)NC[C@H]1CN(c2ccc(N3CCOCC3)c(F)c2)C(=O)O1 [LINEZOLID] |  |  |  | 6.8 | > 32 |  | 16 (≈ 47.4 µM) | 4 (≈ 11.9 µM) | 5.4

Reference: ChEMBL document CHEMBL1146778, “The synthesis and antimicrobial evaluation of a new series of isoxazolinyl oxazolidinones” (2004)
